What follows are compounds tested against T1, MAGL (Homo sapiens, UniProt Q99685) (assay: MAGL inhibition, 2-AG assay (hydrolysis of 2-arachidonoylglycerol, arachidonic acid by mass spectrometry)). Details: 2-AG assay (footnote [b]).
T1 sequence (Q99685 1-303): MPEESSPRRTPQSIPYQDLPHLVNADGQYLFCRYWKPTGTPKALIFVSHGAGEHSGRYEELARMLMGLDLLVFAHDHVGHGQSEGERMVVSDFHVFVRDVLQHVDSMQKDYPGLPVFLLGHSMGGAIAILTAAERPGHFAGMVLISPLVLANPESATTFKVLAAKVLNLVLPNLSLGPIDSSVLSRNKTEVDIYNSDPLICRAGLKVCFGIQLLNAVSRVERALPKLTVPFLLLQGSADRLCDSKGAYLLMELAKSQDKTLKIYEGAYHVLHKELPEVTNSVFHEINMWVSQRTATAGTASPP
Format: biochemical
Method in brief: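 Hydrolysis of 8 μM 2-arachidonoylglycerol by […] was run for 30 min at RT after a 15 min compound preincubation, in Tris/EDTA/Tween buffer. Test compounds spanned […]. The product was measured by online SPE-MS/MS (transitions 303.1→259.1 and 311.1→267.0), and activity was derived from the arachidonic acid/d8-arachidonic acid signal ratio.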
`O=C1CO[C@H]2CCN(C(=O)N3CC(c4ccc(CCCF)cc4)C3)C[C@H]2N1` [Example 247, (4aR,8aS)-6-[3-[4-(3-Fluoropropyl)phenyl]azetidine-1-carbonyl]-4,4a,5,7,8,8a-hexahydropyrido[4,3-b][1,4]oxazin-3-one] gave an IC50 of 6 nM. `O=C1CO[C@H]2CCN(C(=O)N3CC(N4Cc5cccc(Cl)c5C4)C3)C[C@H]2N1` [Example 266, (4aR,8aS)-6-[3-(4-Chloroisoindolin-2-yl)azetidine-1-carbonyl]-4,4a,5,7,8,8a-hexahydropyrido[4,3-b][1,4]oxazin-3-one] showed an IC50 of 457 nM. `CCCOc1ccc(C2CN(C(=O)N3CC[C@@H]4OCC(=O)N[C@@H]4C3)C2)cc1` [Example 258, (4aR,8aS)-6-[3-(4-Propoxyphenyl)azetidine-1-carbonyl]-4,4a,5,7,8,8a-hexahydropyrido[4,3-b][1,4]oxazin-3-one] showed an IC50 of 5 nM. In the case of `O=C1CO[C@H]2CCN(C(=O)N3CC(c4ccc(N5CCC(C(F)(F)F)C5)nc4)C3)C[C@H]2N1` (stereo partly drawn) [Example 275, (4aR,8aS)-6-[3-[6-[3S-or 3R-(trifluoromethyl)pyrrolidin-1-yl]-3-pyridyl]azetidine-1-carbonyl]-4,4a,5,7,8,8a-hexahydropyrido[4,3-b][1,4]oxazin-3-one], the IC50 is reported as 4 nM. `CS(=O)(=O)c1cccc(C(c2ccccn2)C2CCN(C(=O)N3CC[C@@H]4OCC(=O)N[C@@H]4C3)CC2)c1` (single isomer, unassigned) [Example 190, (4aR,8aS)-6-[4-[(S or R)-(3-methylsulfonylphenyl)-(2-pyridyl)methyl]piperidine-1-carbonyl]-4,4a,5,7,8,8a-hexahydropyrido[4,3-b][1,4]oxazin-3-one] gave an IC50 of 261 nM. Work on `COc1ccc(C2CN(C(=O)N3CC[C@@H]4OCC(=O)N[C@@H]4C3)C2)cn1` [Example 183, (4aR,8aS)-6-[3-(6-Methoxypyridin-3-yl)azetidine-1-carbonyl]-4,4a,5,7,8,8a-hexahydropyrido[4,3-b][1,4]oxazin-3-one] yielded an IC50 of 1600 nM. For `CC1CN(c2ccc(C3CN(C(=O)N4CC[C@@H]5OCC(=O)N[C@@H]5C4)C3)cc2Cl)C1` [Example 224, (4aR,8aS)-6-(3-(3-Chloro-4-(3-methylazetidin-1-yl)phenyl)azetidine-1-carbonyl)hexahydro-2H-pyrido[4,3-b][1,4]oxazin-3(4H)-one], the IC50 was 6 nM. `CC(OC1CN(C(=O)N2CC[C@@H]3OCC(=O)N[C@@H]3C2)C1)c1ccc(C(F)(F)F)cc1` (stereo partly drawn) [Example 90, (4aR,8aS)-6-[3-[1-[4-(Trifluoromethyl)phenyl]ethoxy]azetidine-1-carbonyl]-4,4a,5,7,8,8a-hexahydropyrido[4,3-b][1,4]oxazin-3-one] gave an IC50 of 49 nM. `O=C1CO[C@H]2CCN(C(=O)N3CC(c4ccc(N5CCCC5C(F)(F)F)nc4)C3)C[C@H]2N1` (stereo partly drawn) [Example 174, (4aR,8aS)-6-(3-(6-(2-(Trifluoromethyl)pyrrolidin-1-yl)pyridin-3-yl)azetidine-1-carbonyl)hexahydro-2H-pyrido[4,3-b][1,4]oxazin-3(4H)-one] was tested, and the IC50 was 7 nM. `O=C1CO[C@H]2CCN(C(=O)N3CC(c4ccc(C5(C(F)(F)F)CC5)cc4)C3)C[C@H]2N1` [Example 188, (4aR,8aS)-6-[3-[4-[1-(Trifluoromethyl)cyclopropyl]phenyl]azetidine-1-carbonyl]-4,4a,5,7,8,8a-hexahydropyrido[4,3-b][1,4]oxazin-3-one] was tested, and the IC50 was 4 nM. `O=C1CO[C@H]2CCN(C(=O)N3CC(c4ccc(N5CC(F)(F)C5)cc4)C3)C[C@H]2N1` [Example 156, (4aR,8aS)-6-(3-(4-(3,3-Difluoroazetidin-1-yl)phenyl)azetidine-1-carbonyl)hexahydro-2H-pyrido[4,3-b][1,4]oxazin-3(4H)-one] showed an IC50 of 24 nM. `O=C1CO[C@H]2CCN(C(=O)N3CC(c4ccc(N5CCC6(CC6)C5)cc4)C3)C[C@H]2N1` [Example 179, (4aR,8aS)-6-(3-(4-(5-Azaspiro[2.4]heptan-5-yl)phenyl)azetidine-1-carbonyl)hexahydro-2H-pyrido[4,3-b][1,4]oxazin-3(4H)-one] showed an IC50 of 1 nM. With `COc1ccc(C(c2cccnc2)C2CCN(C(=O)N3CC[C@@H]4OCC(=O)N[C@@H]4C3)CC2)cc1OC` (single isomer, unassigned) [Example 136, (4aR,8aS)-6-[4-[(S or R)-(3,4-dimethoxyphenyl)-(3-pyridyl)methyl]piperidine-1-carbonyl]-4,4a,5,7,8,8a-hexahydropyrido[4,3-b][1,4]oxazin-3-one] the IC50 was 14 nM. `O=C1CO[C@H]2CCN(C(=O)N3CC(c4ccc(-c5ccc(Cl)cc5F)cc4)C3)C[C@H]2N1` [Example 133, (4aR,8aS)-6-[3-[4-(4-Chloro-2-fluoro-phenyl)phenyl]azetidine-1-carbonyl]-4,4a,5,7,8,8a-hexahydropyrido[4,3-b][1,4]oxazin-3-one] showed an IC50 of 0.2 nM. `O=C1CO[C@H]2CCN(C(=O)N3CC(c4ccc(OC(F)(F)F)c(F)c4)C3)C[C@H]2N1` [Example 202, (4aR,8aS)-6-(3-(3-Fluoro-4-(trifluoromethoxy)phenyl)azetidine-1-carbonyl)hexahydro-2H-pyrido[4,3-b][1,4]oxazin-3(4H)-one] showed an IC50 of 12 nM. `CC(OC1CN(C(=O)N2CC[C@@H]3OCC(=O)N[C@@H]3C2)C1)c1ccc(C(F)(F)F)cc1` (single isomer, unassigned) [Example 114, (4aR,8aS)-6-(3-(1-(R or S)-(4-(Trifluoromethyl)phenyl)ethoxy)azetidine-1-carbonyl)hexahydro-2H-pyrido[4,3-b][1,4]oxazin-3(4H)-one] showed an IC50 of 49 nM. With `COc1ccc(C(c2cccnc2)C2CCN(C(=O)N3CC[C@@H]4OCC(=O)N[C@@H]4C3)CC2)cc1OC` (single isomer, unassigned) [Example 135, (4aR,8aS)-6-[4-[(R or S)-(3,4-Dimethoxyphenyl)-(3-pyridyl)methyl]piperidine-1-carbonyl]-4,4a,5,7,8,8a-hexahydropyrido[4,3-b][1,4]oxazin-3-one] the IC50 was 7 nM. Compound `COC1(C)CN(c2ccc(C3CN(C(=O)N4CC[C@@H]5OCC(=O)N[C@@H]5C4)C3)cc2)C1` [Example 236, (4aR,8aS)-6-(3-(4-(3-Methoxy-3-methylazetidin-1-yl)phenyl)azetidine-1-carbonyl)hexahydro-2H-pyrido[4,3-b][1,4]oxazin-3(4H)-one] has an IC50 of 15 nM. Compound `CC1CN(C(=O)N2CC[C@@H]3OCC(=O)N[C@@H]3C2)CC[C@@H]1c1ccc(C(C)(F)F)cn1` (single isomer, unassigned) [Example 45, (4aR,8aS)-6-((4R or 4S)-(5-(1,1-Difluoroethyl)pyridin-2-yl)-3-methylpiperidine-1-carbonyl)hexahydro-2H-pyrido[4,3-b][1,4]oxazin-3(4H)-one] has an IC50 of 3300 nM. In the case of `CS(=O)(=O)c1cccc(C(c2ccncc2)C2CCN(C(=O)N3CC[C@@H]4OCC(=O)N[C@@H]4C3)CC2)c1` (single isomer, unassigned) [Example 178, (4aR,8aS)-6-[4-[(S or R)-(3-methylsulfonylphenyl)-(4-pyridyl)methyl]piperidine-1-carbonyl]-4,4a,5,7,8,8a-hexahydropyrido[4,3-b][1,4]oxazin-3-one], the IC50 is reported as 131 nM. With `O=C1CO[C@H]2CCN(C(=O)N3CCC(N4CCc5cc(Cl)ccc54)CC3)C[C@H]2N1` [Example 263, (4aR,8aS)-6-[4-(5-Chloroindolin-1-yl)piperidine-1-carbonyl]-4,4a,5,7,8,8a-hexahydropyrido[4,3-b][1,4]oxazin-3-one] the IC50 was 16 nM. `O=C1CO[C@H]2CCN(C(=O)N3CC(c4ccc(C5(CO)CC5)cc4)C3)C[C@H]2N1` [Example 214, (4aR,8aS)-6-(3-(4-(1-(Hydroxymethyl)cyclopropyl)phenyl)azetidine-1-carbonyl)hexahydro-2H-pyrido[4,3-b][1,4]oxazin-3(4H)-one] was tested, and the IC50 was 62 nM. `O=C1CO[C@H]2CCN(C(=O)N3CCC(c4cn(Cc5ccccc5)c5ccc(Cl)cc45)C3)C[C@H]2N1` (stereo partly drawn) [Example 209, (4aR,8aS)-6-(3-(1-Benzyl-5-chloro-1H-indol-3-yl)pyrrolidine-1-carbonyl)hexahydro-2H-pyrido[4,3-b][1,4]oxazin-3(4H)-one] showed an IC50 of 0.8 nM. In the case of `CC(c1ccc(C(F)(F)F)cc1)C1CN(C(=O)N2CC[C@@H]3OCC(=O)N[C@@H]3C2)C1` (single isomer, unassigned) [Example 103, (4aR,8aS)-6-(3-((S or R)-1-(4-(Trifluoromethyl)phenyl)ethyl)azetidine-1-carbonyl)hexahydro-2H-pyrido[4,3-b][1,4]oxazin-3(4H)-one], the IC50 is reported as 99 nM. `O=C1CO[C@H]2CCN(C(=O)N3CC(c4nnc(-c5ccc(Cl)cc5Cl)o4)C3)C[C@H]2N1` [Example 253, (4aR,8aS)-6-[3-[5-(2,4-Dichlorophenyl)-1,3,4-oxadiazol-2-yl]azetidine-1-carbonyl]-4,4a,5,7,8,8a-hexahydropyrido[4,3-b][1,4]oxazin-3-one] gave an IC50 of 4 nM. `O=C1CO[C@H]2CCN(C(=O)N3CC(c4ccc(OC(F)(F)F)cc4Cl)C3)C[C@H]2N1` [Example 205, (4aR,8aS)-6-(3-(2-Chloro-4-(trifluoromethoxy)phenyl)azetidine-1-carbonyl)hexahydro-2H-pyrido[4,3-b][1,4]oxazin-3(4H)-one] showed an IC50 of 18 nM.

From patent publication US20230117324A1, “OXAZINE MONOACYLGLYCEROL LIPASE (MAGL) INHIBITORS” (Hoffmann-La Roche Inc., priority 2018, published 2023)
